Experimental data taken from PMC3914206.

Assays:
Type in all cases: binding
Parameters in all cases: KINOMEscan: ABL1(F317L)-phosphorylated / KINOMEscan: ABL1(H396P)-nonphosphorylated / KINOMEscan: ABL1(H396P)-phosphorylated / KINOMEscan: ABL1(M351T)-phosphorylated / KINOMEscan: ABL1(T315I)-phosphorylated / KINOMEscan: ABL1-nonphosphorylated / KINOMEscan: ABL1-phosphorylated / KINOMEscan: ACVR2A / KINOMEscan: ACVR2B / KINOMEscan: ADCK3 / KINOMEscan: ADCK4 / KINOMEscan: AKT1 / KINOMEscan: AKT3 / KINOMEscan: ALK / KINOMEscan: ARK5 / KINOMEscan: AURKA / KINOMEscan: AURKC / KINOMEscan: BIKE / KINOMEscan: BMPR1A / KINOMEscan: BMPR1B / KINOMEscan: BMX / KINOMEscan: BRK / KINOMEscan: BRSK1 / KINOMEscan: BRSK2 / KINOMEscan: CAMK1 / KINOMEscan: CAMK1D / KINOMEscan: CAMK1G / KINOMEscan: CAMK2A / KINOMEscan: CAMK2B / KINOMEscan: AAK1 / KINOMEscan: CAMK2D / KINOMEscan: CAMK2G / KINOMEscan: ABL1(F317I)-nonphosphorylated / KINOMEscan: ABL1(F317I)-phosphorylated / KINOMEscan: ABL1(F317L)-nonphosphorylated: unit: % Ctrl
Conditions in all cases: Compound Concentration 10 µM
panel of 442 kinases [1] = biological target: T1, panel of 442 kinases (Homo sapiens, UniProt Q8NEV4)
T1 construct: purchased KINOMEscan
T1 sequence (Q8NEV4 whole entry): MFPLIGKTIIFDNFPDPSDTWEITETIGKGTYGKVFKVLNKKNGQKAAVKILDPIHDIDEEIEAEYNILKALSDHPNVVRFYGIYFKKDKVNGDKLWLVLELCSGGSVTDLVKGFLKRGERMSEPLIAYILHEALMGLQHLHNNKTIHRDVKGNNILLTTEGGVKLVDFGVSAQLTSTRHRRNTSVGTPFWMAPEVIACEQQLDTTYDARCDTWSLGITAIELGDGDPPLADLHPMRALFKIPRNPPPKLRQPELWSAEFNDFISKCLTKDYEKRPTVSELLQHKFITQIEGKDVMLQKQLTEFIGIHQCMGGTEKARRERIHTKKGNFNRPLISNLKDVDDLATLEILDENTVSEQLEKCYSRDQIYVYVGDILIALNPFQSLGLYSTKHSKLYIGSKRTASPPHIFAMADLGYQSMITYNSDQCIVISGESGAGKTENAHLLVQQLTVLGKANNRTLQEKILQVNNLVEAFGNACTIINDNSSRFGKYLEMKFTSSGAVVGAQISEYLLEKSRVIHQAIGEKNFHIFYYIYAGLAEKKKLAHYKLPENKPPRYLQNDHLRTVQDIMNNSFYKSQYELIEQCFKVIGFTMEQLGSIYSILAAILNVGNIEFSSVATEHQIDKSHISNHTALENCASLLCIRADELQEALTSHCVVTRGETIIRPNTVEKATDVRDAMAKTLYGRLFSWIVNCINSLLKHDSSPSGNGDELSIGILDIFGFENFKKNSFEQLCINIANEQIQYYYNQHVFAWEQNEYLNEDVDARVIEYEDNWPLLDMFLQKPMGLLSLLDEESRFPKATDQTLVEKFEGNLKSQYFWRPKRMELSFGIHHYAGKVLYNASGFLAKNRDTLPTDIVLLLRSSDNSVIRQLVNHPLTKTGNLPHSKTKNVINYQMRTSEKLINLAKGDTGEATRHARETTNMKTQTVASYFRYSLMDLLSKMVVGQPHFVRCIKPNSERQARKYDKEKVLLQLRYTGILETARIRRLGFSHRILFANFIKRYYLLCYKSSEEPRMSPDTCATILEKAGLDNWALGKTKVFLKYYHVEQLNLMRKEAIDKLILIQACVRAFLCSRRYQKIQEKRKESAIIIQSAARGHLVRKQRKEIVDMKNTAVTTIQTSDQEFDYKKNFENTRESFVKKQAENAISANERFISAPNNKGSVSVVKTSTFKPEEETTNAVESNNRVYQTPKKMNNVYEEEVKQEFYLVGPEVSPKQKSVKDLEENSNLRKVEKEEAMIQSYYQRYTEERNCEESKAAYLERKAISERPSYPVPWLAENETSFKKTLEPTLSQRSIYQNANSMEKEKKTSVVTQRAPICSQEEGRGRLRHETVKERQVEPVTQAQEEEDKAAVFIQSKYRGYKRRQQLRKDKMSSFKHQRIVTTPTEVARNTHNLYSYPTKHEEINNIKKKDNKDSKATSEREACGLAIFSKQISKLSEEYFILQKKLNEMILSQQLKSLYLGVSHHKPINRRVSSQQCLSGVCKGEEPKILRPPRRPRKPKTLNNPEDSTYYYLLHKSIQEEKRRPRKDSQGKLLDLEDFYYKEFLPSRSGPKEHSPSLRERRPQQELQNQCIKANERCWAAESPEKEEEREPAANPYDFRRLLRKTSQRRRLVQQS
Text: (§1) We assessed the selectivity of members of this scaffold using the KINOMEscan methodology across a near comprehensive panel of 442 kinases [[18,27]].

panel of 442 kinases [2] = biological target: T2, panel of 442 kinases (Homo sapiens, UniProt Q8NI60)
T2 construct: purchased KINOMEscan
T2 sequence (Q8NI60 163-647): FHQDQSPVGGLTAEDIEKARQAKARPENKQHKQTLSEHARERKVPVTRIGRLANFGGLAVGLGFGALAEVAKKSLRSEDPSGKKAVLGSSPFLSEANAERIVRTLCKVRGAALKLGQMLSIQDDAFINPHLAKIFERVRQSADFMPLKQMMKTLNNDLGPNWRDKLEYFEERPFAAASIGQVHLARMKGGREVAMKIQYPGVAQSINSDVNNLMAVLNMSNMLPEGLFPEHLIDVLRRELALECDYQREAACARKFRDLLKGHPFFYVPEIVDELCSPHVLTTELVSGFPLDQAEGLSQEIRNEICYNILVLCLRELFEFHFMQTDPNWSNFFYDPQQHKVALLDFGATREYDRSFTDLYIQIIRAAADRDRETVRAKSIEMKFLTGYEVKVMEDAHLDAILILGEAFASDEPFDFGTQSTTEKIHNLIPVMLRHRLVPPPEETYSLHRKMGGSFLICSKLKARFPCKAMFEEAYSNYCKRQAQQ
Text: as §1

panel of 442 kinases [3] = biological target: T3, panel of 442 kinases (Homo sapiens, UniProt O00238)
T3 construct: purchased KINOMEscan
T3 sequence (O00238 14-502): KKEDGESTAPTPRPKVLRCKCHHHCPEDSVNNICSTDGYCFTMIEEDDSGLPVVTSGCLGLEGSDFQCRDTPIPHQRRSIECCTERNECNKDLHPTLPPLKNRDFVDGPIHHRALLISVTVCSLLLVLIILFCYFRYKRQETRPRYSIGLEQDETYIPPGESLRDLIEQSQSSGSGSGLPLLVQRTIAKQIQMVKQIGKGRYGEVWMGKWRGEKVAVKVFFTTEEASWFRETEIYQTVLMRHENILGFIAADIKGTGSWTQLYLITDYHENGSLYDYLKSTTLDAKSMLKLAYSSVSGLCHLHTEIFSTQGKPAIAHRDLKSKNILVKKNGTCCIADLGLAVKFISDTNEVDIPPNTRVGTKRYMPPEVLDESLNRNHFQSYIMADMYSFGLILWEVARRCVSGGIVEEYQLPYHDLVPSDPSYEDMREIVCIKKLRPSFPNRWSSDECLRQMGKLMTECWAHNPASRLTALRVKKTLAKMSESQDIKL
Text: as §1

panel of 442 kinases [4] = biological target: T4, panel of 442 kinases (Homo sapiens, UniProt Q9P1W9)
T4 construct: purchased KINOMEscan
T4 sequence (Q9P1W9 whole entry): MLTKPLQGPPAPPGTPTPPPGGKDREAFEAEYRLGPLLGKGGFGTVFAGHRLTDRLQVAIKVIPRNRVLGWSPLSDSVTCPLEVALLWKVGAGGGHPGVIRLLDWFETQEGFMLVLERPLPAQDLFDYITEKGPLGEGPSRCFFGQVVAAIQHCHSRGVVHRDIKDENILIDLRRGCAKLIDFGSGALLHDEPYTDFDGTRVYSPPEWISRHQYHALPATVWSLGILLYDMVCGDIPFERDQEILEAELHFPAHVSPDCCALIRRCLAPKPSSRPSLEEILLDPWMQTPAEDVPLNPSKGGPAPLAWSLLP
Text: as §1

Row | Structure (SMILES) | KINOMEscan: MYO3A (panel of 442 kinases [1]) | KINOMEscan: ADCK3 (panel of 442 kinases [2]) | KINOMEscan: BMPR1B (panel of 442 kinases [3]) | KINOMEscan: PIM2 (panel of 442 kinases [4])
1 | COc1cc(C(=O)N2CCC(N3CCN(C)CC3)CC2)ccc1Nc1ncc2c(n1)N(C)c1ccccc1C(=O)N2C [15 (LRRK2-IN-1)] | 94 | 71 | 76 | 100
2 | CCOc1cc(C(=O)N2CCC(N3CCN(C)CC3)CC2)ccc1Nc1ncc2c(n1)N(C1CCCC1)c1ccccc1C(=O)N2C [Compound 26] | 100 | 59 | 100 | 100
3 | COc1cc(C(=O)N2CCC(N3CCN(C)CC3)CC2)ccc1Nc1ncc2c(n1)N1CCc3cccc(c31)C(=O)N2C [Compound 24] | – | 56 | 97 | 85
4 | COc1cc(C(=O)N2CCC(N3CCN(C)CC3)CC2)ccc1Nc1ncc2c(n1)N(C1CCCC1)c1ccccc1C(=O)N2C [Compound 25, 11-cyclopentyl-2-((2-methoxy-4-(4-(4-methylpiperazin-1-yl)piperidine-1-carbonyl)phenyl)amino)-5-methyl-5H-benzo[e]pyrimido[5,4-b][1,4]diazepin-6(11H)-one] | 86 | 61 | 98 | 100
